Where a name gives a salt, the structure may show the parent alone.

For the first test, the target named is T1, human hNET (Homo sapiens, UniProt P23975).
T1 construct: expressed in transfected cells; host or cells: MDCK-Net6 (MDCK cells stably transfected with hNET)
T1 sequence (P23975 whole entry): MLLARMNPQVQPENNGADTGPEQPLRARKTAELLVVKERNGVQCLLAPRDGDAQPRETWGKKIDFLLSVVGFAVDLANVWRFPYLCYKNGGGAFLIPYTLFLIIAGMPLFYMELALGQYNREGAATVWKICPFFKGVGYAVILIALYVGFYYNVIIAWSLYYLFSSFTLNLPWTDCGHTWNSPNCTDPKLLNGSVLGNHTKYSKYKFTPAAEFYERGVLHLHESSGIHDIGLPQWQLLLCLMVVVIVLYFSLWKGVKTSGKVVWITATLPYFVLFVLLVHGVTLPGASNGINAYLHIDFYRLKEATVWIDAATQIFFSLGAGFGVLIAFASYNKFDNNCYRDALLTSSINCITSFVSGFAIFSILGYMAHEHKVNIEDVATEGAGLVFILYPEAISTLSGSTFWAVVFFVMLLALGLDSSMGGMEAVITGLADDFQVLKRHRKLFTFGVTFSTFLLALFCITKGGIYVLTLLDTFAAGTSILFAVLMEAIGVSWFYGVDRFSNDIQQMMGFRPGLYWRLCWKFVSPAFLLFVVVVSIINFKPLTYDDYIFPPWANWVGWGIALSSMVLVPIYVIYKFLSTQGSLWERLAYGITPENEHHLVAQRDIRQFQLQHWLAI
Briefly: Functional norepinephrine reuptake assay, Procedure B (6,000 cells/well). The format is cell-based. The following applies: MDCK-Net6 cells, 6,000 cells/well, 16 nM 3H-norepinephrine; read-out: Procedure B hNET uptake IC50. On the procedure: For screening, 25 μl aliquots of compound solution at a 1 μM or 10 μM final concentration was delivered directly to cells.
For IC50 determinations, stock compounds were prepared at 10 mM from powder. The stock solution was diluted according to compound testing range. […] On the day of assay, 25 μl of compound solution at the specified concentrations were added to the plates containing cells. A DMSO stock of desipramine was prepared at 10 mM in DMSO and diluted for a final concentration of 20 μM to determine the non-specific reuptake.
MDCK-Net6 cells, stably transfected with human hNET (Pacholczyk, 1991), were maintained in growth media [high glucose DMEM (Gibco Cat. 11995), 10% FBS (dialyzed, heat-inactivated, Sigma, dialysed, heat inactivated, Lot# K0922 or equivalent) 1xPen/Strep, and 500 μg/ml G418 (Gibco Cat. 10131)]. Cells were plated at 300,000/T75 flask and cells split twice weekly.
Cells were plated at 50,000 cells/well (Procedure A) or 6,000 cells/well (Procedure B) on day 1 in BD Falcon Microtest 96-well sterile cell culture plates, Optilux White/Clear Bottom TC plate (VWR; # 62406-466 or equivalent) in growth media and maintained in a cell incubator (37° C., 5% CO2). On Day 2, cells were removed from the cell incubator and the growth media is replaced by 200 μl of assay buffer (25 mm HEPES 120 mM NaCL; 5 mM KCl; 2.5 mM CaCl2; 1.2 mM MgSO4; 2 mg/ml glucose (pH 7.4, 37° C.)) containing 0.2 mg/ml ascorbic acid and 1 μM parglyine. For screening, 25 μl of compound in 4% DMSO was added directly to each well and the plate was incubated for 5 minutes (37° C.). […] The reaction is aspirated from the plate and the cells washed with 250 μl of 50 mM Tris Buffer (4° C.). The plates were left to dry for 1 hour. The cells were lysed using 0.25 M NaOH solution then placed on a shake table and vigorously shaken for 10 minutes. After cell lysis, 100 μl of Microscint 20 (PerkinElmer; #87-051101) was added to the plates and the plates were sealed with film tape and replaced on the shake table for a minimum of 10 minutes. The plates were counted in a TopCount counter (PerkinElmer).
% inhibition=[1−((mean cpm test compound wells−mean cpm non-specific wells)/(mean cpm control wells−mean cpm non-specific wells))]×100
For IC50 determination, raw cpm values were generated in a data file from the TopCount counter. The data was organized using the Microsoft Excel and transferred into PRIZM graphing and statistical program, which calculated the estimated IC50 value. Calculation of IC50 values was made using non-linear regression analysis with a sigmoidal dose response with variable slope. The statistical program used wells containing ^3H norepinephrine only as the maximal NE reuptake determinant and wells containing ^3H norepinephrine plus 20 μM desipramine (AHR-9543) as the minimal NE reuptake determinant (non-specific determinant). Estimation of the IC50 value was completed on a log scale and the line was fit between the maximal and minimal NE reuptake values.
Take `CNCCC[C@@H]1Oc2ccccc2N(c2ccccc2)S1(=O)=O` (single isomer, unassigned) [Example 14]: the half-maximal inhibitory concentration (IC50) was 0.0239 µM.
On the same count and under the same terms, in the case of `NCC[C@@H]1Oc2ccccc2N(c2ccccc2)S1(=O)=O` (single isomer, unassigned) [Example 103] it was 3.32 µM.
Still for that read-out and setting: in the case of `CC(C)CNCCC1Oc2ccccc2N(c2ccccc2)S1(=O)=O` (centres unmarked) [Example 28, N-[2-(2,2-dioxido-1-phenyl-1H-4,2,1-benzoxathiazin-3-yl)ethyl]-2-methylpropan-1-amine] it was 1.76 µM.
`CNCCC[C@H]1Cc2cc(F)ccc2N(c2ccc(C)cc2F)S1(=O)=O` (single isomer, unassigned) [Example 149]: the IC50 was 0.074 µM.
On the same count and under the same terms, in the case of `CNCC[C@H]1Oc2ccccc2N(c2ccccc2)S1(=O)=O` (single isomer, unassigned) [Example 104] it was 0.302 µM; in that of `CNCCCC1Cc2ccccc2N(c2cccnc2)S1(=O)=O` (racemic) [Example 123, 3-(2,2-dioxido-1-pyridin-3-yl-3,4-dihydro-1H-2,1-benzothiazin-3-yl)-N-methylpropan-1-amine], 0.256 µM.
Same read-out and setting: as for `CNCCCC1Oc2ccc(-c3ccccc3)cc2N(c2ccccc2)S1(=O)=O` (centres unmarked) [Example 54, 3-(2,2-dioxido-1,7-diphenyl-1H-4,2,1-benzoxathiazin-3-yl)-N-methylpropan-1-amine], the figure is 0.407 µM; as for `CNCCC[C@H]1Oc2cc3ccccc3cc2N(c2ccccc2)S1(=O)=O` (single isomer, unassigned) [Example 71, Hydrochloride], 0.0694 µM; as for `CNCCC[C@H]1Cc2cc(F)ccc2N(c2ccccc2Cl)S1(=O)=O` (single isomer, unassigned) [Example 158], 0.145 µM.
As to `CNCC[C@@H]1Oc2ccccc2N(c2ccccc2)S1(=O)=O` (single isomer, unassigned) [Example 105], the IC50 was determined as 1.22 µM.
As for `CNCCC[C@H]1Cc2ccccc2N(c2ccccc2)S1(=O)=O` (single isomer, unassigned) [Example 10], the IC50 stood at 0.096 µM.
Still for that read-out and setting: in the case of `CNCCC[C@@H]1Cc2cc(F)ccc2N(c2ccc(C)cc2F)S1(=O)=O` (single isomer, unassigned) [Example 150] it was 0.016 µM; in that of `CNCCC[C@H]1Cc2ccccc2N(c2ccccn2)S1(=O)=O` (single isomer, unassigned) [Example 127], 1.54 µM; in that of `CNCCC[C@H]1Cc2ccccc2N(c2ccccc2F)S1(=O)=O` (single isomer, unassigned) [Example 74, Hydrochloride], 0.0585 µM.
The same measure, in the same setting: as for `CNCCCC1Cc2cc(F)ccc2N(c2ccccc2Cl)S1(=O)=O` (racemic) [Example 157, 3-[1-(2-chlorophenyl)-6-fluoro-2,2-dioxido-3,4-dihydro-1H-2,1-benzothiazin-3-yl]-N-methylpropan-1-amine], the figure is 0.128 µM.
With `CNCCC[C@@H]1Cc2cc(F)ccc2N(c2ccccc2C#N)S1(=O)=O` (single isomer, unassigned) [Example 165], the IC50 was found to be 0.206 µM.
`CCCNCCC1Oc2ccccc2N(c2ccccc2)S1(=O)=O` (centres unmarked) [Example 27, N-[2-(2,2-dioxido-1-phenyl-1H-4,2,1-benzoxathiazin-3-yl)ethyl]propan-1-amine]: the IC50 amounted to 4.41 µM.
For `CN(C)CCNCC1Oc2ccccc2N(c2ccccc2)S1(=O)=O` (centres unmarked) [Example 138, N′-[(2,2-dioxido-1-phenyl-1H-4,2,1-benzoxathiazin-3-yl)methyl]-N,N-dimethylethane-1,2-diamine], the IC50 turned out to be 3.75 µM.
On the same count and under the same terms, in the case of `NCCNCC1Oc2ccccc2N(c2ccccc2)S1(=O)=O` (centres unmarked) [Example 137, N-[(2,2-dioxido-1-phenyl-1H-4,2,1-benzoxathiazin-3-yl)methyl]ethane-1,2-diamine] it was 0.193 µM.

The same test, now with this note: MDCK-Net6 cells, 6,000 cells/well; Conc 6000 nM (6 μM); read-out: Procedure B hNET uptake (% inhibition).
As to `O=S1(=O)C(CCNC2CCC2)Oc2ccccc2N1c1ccccc1` (centres unmarked) [Example 32, N-[2-(2,2-dioxido-1-phenyl-1H-4,2,1-benzoxathiazin-3-yl)ethyl]cyclobutanamine], the inhibition at 6 µM was 54%.

Values taken from patent US20080171737A1 (Wyeth, priority 2006, published 2008).
